Laboratory results from patent US6509001B1, “Calcitonin receptor binding reagents” (Diatide, Inc., priority 1997, dated 2003).
Read-outs that look alike come from different tables or passages of the source. Values belong to the molecule of their own block, whether it stands above or below them. Starred links: 1 amine or outer side, 2 acyl side, 3 side chain; linkers in the order of their positions; H or OH if unused. Positions of bridges follow the written chain, without caps; N, C: chain ends. Non-standard residues stand in square brackets, D forms with d. Residues, ends and D or L forms follow the SMILES beside them. *: point of attachment. X2 = NCCCC[C@H](NC(=O)[C@H](CS)NC(=O)[C@H](CCCCN)NC(=O)[C@@H](N)CNC(=O)C*)C(N)=O; X1 = NCCCC[C@H](NC(=O)[C@H](CS)NC(=O)CNC(=O)CNC(=O)C*)C(N)=O; hhCys(CH2CO) = O=C([C@H](CCCSCC(=O)[*:3])N[*:1])[*:2]; εLys = N[C@@H](CCCCN[*:1])C(=O)[*:2]; X3 = CC(C)(S)CNCCN(CCCCC*)CC(C)(C)S

Legend:
CT receptor [1] = experiment: Displacement of 125I-CT from CT receptor in rat brain membranes; assay type: binding; conditions: displacement of 125I-CT (Table III)
Method: (§1) Peptide reagents within the scope of the invention, or ReO complexed embodiments thereof, were tested using in vitro assays that measure their ability to inhibit the specific binding of ^125I-CT to the CT receptor, using membranes from rat brain or from a breast tumor cell line, and on whole cells from breast tumor cell lines, as described in detail below.
(§2) Assays using microsomal membrane fractions of rat brain and T-47D cells (obtained from the American Type Culture collection, Rockville, Md., ATCC Accession No. HTB-133) were used to identify analogs with high affinity for the CT receptor according to the method of Fisher et al. (1977, British J. Cancer 35: 777-784). Briefly, tissue was minced and homogenized. The membranes were washed several times, assayed for protein content and used in the binding assay. Membrane protein was incubated with 0.1 μCi of ^125I-salmon CT (Amersham, Cleveland, Ohio) in he presence or absence of varying concentrations of reagents to be tested. Both uncomplexed and ReO complexed reagents were tested. One hundred percent specific binding of ^125I-CT to the CT receptor was defined as the difference between total ^125I-CT binding and nonspecific binding of ^125I-CT measured in the presence of a receptor-saturating concentration (1 μM) of excess unlabeled salmon CT (Sigma, St. Louis, Mo.).

CT receptor [2] = target: T1, CT receptor (Homo sapiens, UniProt P30988); experiment: Displacement of 125I-CT from CT receptor in T-47D cell membranes; assay type: binding
T1 construct: Assays using microsomal membrane fractions of rat brain and T-47D cells; host or cells: T-47D
T1 sequence (P30988 25-474): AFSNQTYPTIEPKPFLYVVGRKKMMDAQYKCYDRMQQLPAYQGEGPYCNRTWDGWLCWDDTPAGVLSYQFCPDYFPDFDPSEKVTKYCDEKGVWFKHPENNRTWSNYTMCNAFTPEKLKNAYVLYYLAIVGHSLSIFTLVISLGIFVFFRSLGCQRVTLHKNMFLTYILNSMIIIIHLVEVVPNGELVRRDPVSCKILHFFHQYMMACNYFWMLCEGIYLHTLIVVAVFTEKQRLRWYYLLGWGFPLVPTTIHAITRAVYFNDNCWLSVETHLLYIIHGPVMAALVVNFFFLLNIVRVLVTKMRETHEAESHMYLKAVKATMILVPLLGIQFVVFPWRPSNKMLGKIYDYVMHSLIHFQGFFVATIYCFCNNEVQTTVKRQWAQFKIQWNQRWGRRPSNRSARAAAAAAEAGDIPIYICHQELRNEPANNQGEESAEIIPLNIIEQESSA
Method: as §1, §2

T-47D tumor = experiment: Biodistribution of 99mTc-CT peptide, T-47D tumor in nude mouse; assay type: in vivo; conditions: 99mTc-labeled peptide, 90 minutes
From the text: (§3) Breast cancer cell lines were screened for receptor expression and the best cell lines chosen for xenograft implantation in immune deficient mice. These tumor models were used to evaluate the tumor targeting potential in vivo of the high affinity peptides identified in the in vitro assays above.
(§4) CT receptor expressing breast cancer cells (T47D and MCF-7) were implanted into immune deficient mice or Sprague-Dawley rats and allowed to grow tumors. For testing new ^99mTc-CT peptides, tumor-bearing mice or rats were injected with approximately 0.025 mCi at approximately 6 mCi/10 nmol peptide. The animals were cervically dislocated and imaged statically for 5 minutes using a gamma camera. The biodistribution of the ^99mTc-CT peptide was then determined by counting blood, tumor, target organs and muscle in a gamma counter along with standard aliquots of the injected dose. The time points for biodistribution were chosen to represent early, middle and late phases of ^99mTc-CT analog clearance. […] To assess the tumor imaging potential of selected analogs, the ratio of radioactivity in blood and various tissues were compared to that in tumor.

[3] = as above; assay type: in vivo; conditions: 0.025 mCi, total radioactivity, 99mTc-labeled peptide; for tissue uptake dose at […]: 90 minutes
From the text: as §3, §4

[4] = Biodistribution of 99mTc-CT peptide in rat; assay type: in vivo; conditions: 99mTc-labeled peptide; for tissue uptake dose at […] / tissue uptake at […]: 0.025 mCi; for tissue uptake dose at […]: 90 minutes; for tissue uptake at […]: 90 minutes post-injection
Method: as §4

[5] = T-47D membranes, displacement of 125I-CT (Table III)
[6] = T-47D membranes, displacement of 125I-CT (Table III), read-out: T-47D IC50

- IC50 (CT receptor [1]): 2.6 nM
- Ki (CT receptor [2]; [5]): 0.41 nM
- IC50 (CT receptor [2]; [6]): 0.53 nM
Structure (SMILES): CC(C)C[C@H](NC(=O)[C@H](CCCCN)NC(=O)CNC(=O)[C@H](CC(C)C)NC(=O)[C@@H](NC(=O)[C@@H]1CCCSCC(=O)N[C@@H](CO)C(=O)N[C@@H](CC(N)=O)C(=O)N[C@@H](CC(C)C)C(=O)N[C@@H](CO)C(=O)N[C@@H]([C@@H](C)O)C(=O)N1)C(C)C)C(=O)N[C@@H](CO)C(=O)N[C@@H](CSCCCCCN(CCNCC(C)(C)S)CC(C)(C)S)C(=O)N[C@@H](CCC(=O)O)C(=O)N[C@@H](CC(C)C)C(=O)N[C@@H](Cc1c[nH]cn1)C(=O)N[C@@H](CCCCN)C(=O)N[C@@H](CC(C)C)C(=O)N[C@@H](CCC(N)=O)C(=O)N[C@H](C(=O)N[C@@H](Cc1ccc(O)cc1)C(=O)N1CCC[C@H]1C(=O)N[C@@H](CCCNC(=N)N)C(=O)N[C@H](C(=O)N[C@@H](CC(N)=O)C(=O)N[C@H](C(=O)NCC(=O)N[C@@H](CO)C(=O)NCC(=O)N[C@H](C(=O)N1CCC[C@H]1C(N)=O)[C@@H](C)O)[C@@H](C)O)[C@@H](C)O)[C@@H](C)O [Peptide 1] (SNLST[hhCys(CH2CO)]VLGKLSC(X3)ELHKLQTYPRTNTGSGTP-NH2; lactam N-6)

- Tum:Bld (T-47D tumor): 3.3
- Tum:Con (T-47D tumor): 10
- tissue uptake at […] ([3]; 90 minutes post-injection): 1.6 %ID/g
- tissue uptake dose at […] ([3]; GI tract, read-out: GI tract (% ID)): 5.4 %ID
- tissue uptake dose at […] ([3]; kidneys, read-out: Kidneys (% ID)): 18 %ID
- tissue uptake dose at […] ([3]; liver, read-out: Liver (% ID)): 5.5 %ID
- tissue uptake dose at […] ([3]; lung, read-out: Lung (% ID)): 0.24 %ID
- IC50 (CT receptor [1]): 18 nM
- Ki (CT receptor [2]; [5]): 12 nM
- IC50 (CT receptor [2]; [6]): 16 nM
Structure (SMILES): CC(C)C[C@H](NC(=O)[C@H](CCCCN)NC(=O)CNC(=O)[C@H](CC(C)C)NC(=O)[C@@H](NC(=O)[C@@H]1CCCSCC(=O)N[C@@H](CO)C(=O)N[C@@H](CC(N)=O)C(=O)N[C@@H](CC(C)C)C(=O)N[C@@H](CO)C(=O)N[C@@H]([C@@H](C)O)C(=O)N1)C(C)C)C(=O)N[C@@H](CO)C(=O)N[C@@H](CCC(N)=O)C(=O)N[C@@H](CCC(=O)O)C(=O)N[C@@H](CC(C)C)C(=O)N[C@@H](Cc1c[nH]cn1)C(=O)N[C@@H](CCCCN)C(=O)N[C@@H](CC(C)C)C(=O)N[C@@H](CCC(N)=O)C(=O)N[C@H](C(=O)N[C@@H](Cc1ccc(O)cc1)C(=O)N1CCC[C@H]1C(=O)N[C@@H](CCCNC(=N)N)C(=O)N[C@H](C(=O)N[C@@H](CC(N)=O)C(=O)N[C@H](C(=O)NCC(=O)N[C@@H](CO)C(=O)NCC(=O)N[C@H](C(=O)N1CCC[C@H]1C(=O)NCCCC[C@H](N)C(=O)NCC(=O)N[C@@H](CS)C(N)=O)[C@@H](C)O)[C@@H](C)O)[C@@H](C)O)[C@@H](C)O [Peptide 2] (SNLST[hhCys(CH2CO)]VLGKLSQELHKLQTYPRTNTGSGTP[εLys]GC-NH2; lactam N-6)

- PK (min) t½α [4]: 1.4 min
- PK (min) t½β [4]: 19 min
- tissue uptake dose at […] ([4]; Sprague-Dawley, GI tract, total radioactivity, read-out: GI tract (% ID)): 2 %ID
- tissue uptake at […] ([4]; Sprague-Dawley, blood, total radioactivity): 0.027 %ID/g
- tissue uptake dose at […] ([4]; Sprague-Dawley, kidneys, total radioactivity, read-out: Kidneys (% ID)): 35 %ID
- tissue uptake dose at […] ([4]; Sprague-Dawley, liver, total radioactivity, read-out: Liver (% ID)): 4 %ID
- tissue uptake dose at […] ([4]; Sprague-Dawley, lung, total radioactivity, read-out: Lung (% ID)): 0.53 %ID
- IC50 (CT receptor [2]; T-47D cell membranes (Table IV), read-out: IC50 (nM)x): 2.6 nM
Structure (SMILES): CC(C)C[C@H](NC(=O)[C@H](CCCCN)NC(=O)CNC(=O)[C@H](CC(C)C)NC(=O)[C@@H](NC(=O)[C@@H]1CCCSCC(=O)N[C@@H](CO)C(=O)N[C@@H](CC(N)=O)C(=O)N[C@@H](CC(C)C)C(=O)N[C@@H](CO)C(=O)N[C@@H]([C@@H](C)O)C(=O)N1)C(C)C)C(=O)N[C@@H](CO)C(=O)N[C@@H](CSCC(=O)NCC(=O)NCC(=O)N[C@@H](CS)C(=O)N[C@@H](CCCCN)C(N)=O)C(=O)N[C@@H](CCC(=O)O)C(=O)N[C@@H](CC(C)C)C(=O)N[C@@H](Cc1c[nH]cn1)C(=O)N[C@@H](CCCCN)C(=O)N[C@@H](CC(C)C)C(=O)N[C@@H](CCC(N)=O)C(=O)N[C@H](C(=O)N[C@@H](Cc1ccc(O)cc1)C(=O)N1CCC[C@H]1C(=O)N[C@@H](CCCNC(=N)N)C(=O)N[C@H](C(=O)N[C@@H](CC(N)=O)C(=O)N[C@H](C(=O)NCC(=O)N[C@@H](CO)C(=O)NCC(=O)N[C@H](C(=O)N1CCC[C@H]1C(N)=O)[C@@H](C)O)[C@@H](C)O)[C@@H](C)O)[C@@H](C)O [Peptide 4] (SNLST[hhCys(CH2CO)]VLGKLSC(X1)ELHKLQTYPRTNTGSGTP-NH2; lactam N-6)

- PK (min) t½α [4]: 1.6 min
- PK (min) t½β [4]: 17 min
- tissue uptake at […] ([4]; in vivo, read-out: Blood (% ID/g)): 0.048 %ID/g
- tissue uptake dose at […] ([4]; in vivo, read-out: GI tract (% ID)): 4.5 %ID
- tissue uptake dose at […] ([4]; in vivo, read-out: Kidneys (% ID)): 31 %ID
- tissue uptake dose at […] ([4]; in vivo, read-out: Liver (% ID)): 5.8 %ID
- tissue uptake dose at […] ([4]; in vivo, read-out: Lung (% ID)): 0.56 %ID
Structure (SMILES): CC(C)C[C@H](NC(=O)[C@H](CCCCN)NC(=O)CNC(=O)[C@H](CC(C)C)NC(=O)[C@@H](NC(=O)[C@@H]1CCCSCC(=O)N[C@@H](CO)C(=O)N[C@@H](CC(N)=O)C(=O)N[C@@H](CC(C)C)C(=O)N[C@@H](CO)C(=O)N[C@@H]([C@@H](C)O)C(=O)N1)C(C)C)C(=O)N[C@@H](CO)C(=O)N[C@@H](CSCC(=O)NC[C@H](N)C(=O)N[C@@H](CCCCN)C(=O)N[C@@H](CS)C(=O)N[C@@H](CCCCN)C(N)=O)C(=O)N[C@@H](CCC(=O)O)C(=O)N[C@@H](CC(C)C)C(=O)N[C@@H](Cc1c[nH]cn1)C(=O)N[C@@H](CCCCN)C(=O)N[C@@H](CC(C)C)C(=O)N[C@@H](CCC(N)=O)C(=O)N[C@H](C(=O)N[C@@H](Cc1ccc(O)cc1)C(=O)N1CCC[C@H]1C(=O)N[C@@H](CCCNC(=N)N)C(=O)N[C@H](C(=O)N[C@@H](CC(N)=O)C(=O)N[C@H](C(=O)NCC(=O)N[C@@H](CO)C(=O)NCC(=O)N[C@H](C(=O)N1CCC[C@H]1C(N)=O)[C@@H](C)O)[C@@H](C)O)[C@@H](C)O)[C@@H](C)O [Peptide 5] (SNLST[hhCys(CH2CO)]VLGKLSC(X2)ELHKLQTYPRTNTGSGTP-NH2; lactam N-6)
